Test [1] can be described thus: Oxygen Radical Absorption (or Absorbance) Capacity (ORAC). As to conditions: FIG. 6. As for the experimental part:
The antioxidant activity of the light-colored, enriched/concentrated (85%-100%) polyphenolic extract from the dried, unripe fruit rinds of Terminalia belerica was assayed by diphenylpicrylhydrazyl (DPPH), Oxygen Radical Absorption (or Absorbance) Capacity (ORAC) and the hydroxyl radical Absorption (or Absorbance) capacity (HORAC) studies, as per the validated procedures documented in Cosmetics and toiletries. Cosmeceuticals: Jang D I, Lee B J, Jeon C O, Jo N S, Park J H, Cho S Y, Lee H, Koh J S. 1998, J. Agric. Food Chem. (2001), 49, 4619-4626 and J. Agric. Food. […] The ORAC value of the light-colored, enriched/concentrated (85%-100%) polyphenolic extract from the dried, unripe fruit rinds of Terminalia belerica was 6237±640 μMol trolox equivalents/gram while the ORAC value of Vitamin C was 3400 μMol trolox equivalents/gram and that of grape seed extract was 4528 μMol trolox equivalents/gram.

A short description of test [2]: Anti-oxidant activity: DPPH scavenging. Conditions: FIG. 5. As for the experimental part: The antioxidant activity of the light-colored, enriched/concentrated (85%-100%) polyphenolic extract from the dried, unripe fruit rinds of Terminalia belerica was assayed by diphenylpicrylhydrazyl (DPPH), Oxygen Radical Absorption (or Absorbance) Capacity (ORAC) and the hydroxyl radical Absorption (or Absorbance) capacity (HORAC) studies, as per the validated procedures documented in Cosmetics and toiletries. Cosmeceuticals: Jang D I, Lee B J, Jeon C O, Jo N S, Park J H, Cho S Y, Lee H, Koh J S. 1998, J. Agric. Food Chem. (2001), 49, 4619-4626 and J. Agric. Food. Chem. (2002), 50, 2772-2777.)
For orientation: Loss of DPPH colour is used to gauge radical scavenging.

Consider `O=C1O[C@H]([C@@H](O)CO)C(O)=C1O` [Vitamin C], for which the ORAC value in test [1] is given as 3400 μMol trolox equivalents/gram. The SC50 scavenging activity in test [2] was found to be 1.9 µg/mL. In test [2], `Cc1cc(C(C)(C)C)c(O)c(C(C)(C)C)c1` [BHT, Butylated hydroxyl toluene] displayed an SC50 scavenging activity of 4.6 µg/mL.

The record behind these values is patent US20080286393A1, “Method for the enrichment of the polyphenolic contents from unripe fruit rinds of Terminalia belerica and uses thereof” (priority 2007, published 2008).
